This is an account of results in patent US4167580A, “Compositions and method of use to treat arthritic disease with m-fluorobenzimidoylacetonitrile” (American Cyanamid Company, priority 1978, dated 1979).

Series [1] concerns Adjuvant Arthritis in Rats. Description: Adjuvant induced arthritis in rats (chronic inflammation with joint destruction). Type of series: in vivo, Royal Hart, Wistar strain rats. To be noted: for % Inhibition of Control Grade (secondary lesion), Day 14 / % Inhibition of Control Grade (secondary lesion), Day 21 / % Inhibition of Swelling (primary lesion), Day 14 / % Inhibition of Swelling (primary lesion), Day 21 / Dead/Treated At 21 Days / Mean Weight Gain, Day 14 / Mean Weight Gain, Day 21: once daily days 0-13. An excerpt:
Adjuvant induced experimental polyarthritis is a specific systemic disease of the rat which shares interesting similarities with rheumatoid arthritis. Specifically, the histology of the two diseases bears a remarkable resemblance as shown by C. M. Pearson et al., Am. J. Pathol. 42, 73 (1963). E. M. Glenn, Am. J. Vet. Res. 27 (116), 339 (1966) has classified adjuvant induced polyarthritis as a crippling and permanent deformity resulting from diffuse connective tissue involvement around certain susceptible joints in the rat. Zahiri et al., Can. Med. Ass. J. 101, 269 (1969) have shown that the fusiform swelling of the distal joints is associated with edema, congestion and synovitis including pannus formation, all of which precede the ultimate destruction of bone and cartilage. Furthermore, Zahiri et al. indicate that the cartilage destruction in the joint is due to an invasive pannus which originates in the marginal synovium and extends across the articular surface to erode it. […] See S. Wong et al., J. Pharm. & Exptl. Ther. 185, 127 (1973) and G. R. Bobalick et al., Agents & Actions 4, 364 (1974). In a similar manner, inhibition of the progress of arthritis in paws of rats treated with the compounds of this invention also lessens associated joint deterioration.
Groups of three Royal Hart, Wistar strain rats weighing 200±10 grams each were injected intradermally in the right hind paw with Freund's adjuvant (dried human tubercle bacilli in a mineral oil vehicle) at a dose of 2 mg./kg. of body weight. Test compounds were administered orally in a 1.5% staruh vehicle at various doses once daily on days 0 through 13 post challenge. Control rats were treated in a similar manner, but given only starch vehicle. On the 14th and 21st day post challenge the diameter of the injected paw (primary lesion) was measured by micrometer caliper. The volume of inflamed paws were estimated from these measurements and the results are expressed as percent inhibition of swelling as compared to controls. At the same time, the other inflamed sites, such as ears, paws and tail (secondary lesions) were observed and each rat was graded as to degree of inflammation and swelling present. The grading is based on a scale of 0 to 24, where 0 represents a complete absence of induced arthritic nodules and 24 represents the maximum degree of inflammation. The mean grade for each treated group is calculated and the effects of each compound are expressed as percent inhibition of the control grade. Table III records the results of these tests conducted with benzimidoylacetonitrile, m-fluorobenzimidoylacetonitrile and p-fluorobenzimidoylacetonitrile and known anti-inflammatory agents. The active compounds of the present invention suppress the progression of the arthritis and associated joint deterioration. Of particular interest is the low mortality observed with benzimidoylacetonitrile treated rats relative to either controls or rats treated with standard compounds.

Series [2] has as its system Carrageenin Induced Edema of the Rat Paw. Description: Carrageenin induced edema of the rat paw (acute anti-inflammatory activity). To be noted: 250 mg./kg. by gavage, 5 hours after drug (4 hours after carrageenin). The format is in vivo, Royal Hart, Wistar strain rats. The procedure:
In determining the acute anti-inflammatory activity of benzimidoylacetonitrile, Royal Hart, Wistar strain rats ranging in weight from 80 to 90 grams were used. The rats were fasted overnight prior to dosing but had free access to water. The compound was administered in aqueous suspension, by gavage, in a volume of 1.7 ml. per 50 grams of rat [corresponds by hydration volume used by Winter et al., Proc. Soc. […] The phlogistic agent used was carrageenin prepared as a sterile 1% suspension in 0.9% aqueous sodium chloride for routine testing. A volume of 0.05 ml. was injected through a 26 gauge needle into the planter tissue of the right hind paw. Measurements were made 5 hours after drug administration (4 hours after carrageenin challenge). Volumes of both the normal and carrageenin inflamed feet were determined. The difference between the two measurements is considered to be the increased edema due to the carrageenin administration.

Series [3] has as its system Body Temperature of Pyretic Rats. Description: Body temperature in yeast induced pyrexia. The format is in vivo, Royal Hart, Wistar strain rats. The conditions noted are these: 250 mg./kg. by gavage 17 hours after yeast; measured 19 hours post challenge. The method, then: The effect of benzimidoylacetonitrile on body temperature in yeast induced pyrexia was determined by the following procedure. Groups of three Royal Hart, Wistar strain rats weighing 80±5 grams were injected subcutaneously in the nape of the neck with 0.6 ml. of a 40% suspension of dried brewers yeast in distilled water. […] At 19 hours post challenge the rectal temperature of each rat was measured with an electric thermometer. Each dose response experiment was replicated one or more times.

For another series, the system named is Erythema in Guinea Pigs. Description: Ultraviolet induced erythema in guinea pigs, topical application. Type of series: in vivo, Albino guinea pigs. The method, then:
Albino guinea pigs were depilitated on their flanks, the evening before testing, with a standard mixture of barium sulfide and gum acacia. On the morning of the test at 0 hour they were restrained in a plastic container which allows exposure of 3 circular spots. They were then exposed to ultraviolet irradiation from a "Hanovia" Kromayer lamp, model 10, for 60 seconds. Immediately after exposure to ultraviolet light, the guinea pigs were treated by dissolving the test compound in ethyl alcohol at various concentrations and swabbing the UV exposed areas with the aid of a cottom tipped applicator stick. At one and four hours, the degree of erythema for each of the three sites was assessed according to the following scoring system: 0=no erythema, 0.5=incomplete circle or faint erythema and 1.0=complete circle of distinct erythema. Thus, the maximum score for each animal was 3.0.

Where [4] appears, read: 1% in ethyl alcohol, maximum score 3.0, ethyl alcohol control 2.5.
[5] abbreviates: 1% in ethyl alcohol, maximum score 3.0, ethyl alcohol control 3.0.

For the molecule `N#CCC(=N)c1ccc(F)cc1` [p-Fluorobenzimidoylacetonitrile, p-fluorobenzimidoylacetonitrile], in series [1] (25 mg./kg. oral), the “% Inhibition of Control Grade (secondary lesion), Day 14” value (“% Inhibition of Control Grade … Day 14” below) is 14%; the “% Inhibition of Control Grade (secondary lesion), Day 21” value (“% Inhibition of Control Grade … Day 21” for short) is listed as 9%; the “% Inhibition of Swelling (primary lesion), Day 14” value (from here on “% Inhibition of Swelling … Day 14”) is given as 26%; the “% Inhibition of Swelling (primary lesion), Day 21” value (from here on “% Inhibition of Swelling … Day 21”) is recorded as 14%. Besides, in series [1] (25 mg./kg. oral), the “Dead/Treated At 21 Days” value was 2/18; the “Mean Weight Gain, Day 14” value turned out to be 53 grams; the “Mean Weight Gain, Day 21” value came out at 50 grams. Moreover, in series [1] (50 mg./kg. oral), the “% Inhibition of Control Grade … Day 14” value is 27%; the “% Inhibition of Control Grade … Day 21” value is on record as 8%; the “% Inhibition of Swelling … Day 14” value was determined as 43%; the “% Inhibition of Swelling … Day 21” value worked out at 25%. Besides, in series [1] (50 mg./kg. oral), the “Dead/Treated At 21 Days” value is 4/36; the “Mean Weight Gain, Day 14” value is 66 grams; the “Mean Weight Gain, Day 21” value turned out to be 57 grams. Moreover, in series [1] (100 mg./kg. oral), the “% Inhibition of Control Grade … Day 14” value is given as 49%; the “% Inhibition of Control Grade … Day 21” value is recorded as 22%; the “% Inhibition of Swelling … Day 14” value came out at 53%; the “% Inhibition of Swelling … Day 21” value is listed as 29%. Moreover, in series [1] (100 mg./kg. oral), the “Dead/Treated At 21 Days” value is on record as 1/18; the “Mean Weight Gain, Day 14” value was determined as 78 grams; the “Mean Weight Gain, Day 21” value is 67 grams.
As to `CCCCC1C(=O)N(c2ccccc2)N(c2ccccc2)C1=O` [Phenylbutazone], the “C/T Edema Ratio (edema of control animals/edema of treated animals)” value in series [2] is 2.3. Also, the “Decrease In Body Temp.” value in series [3] was determined as 1.5 °C. For the same molecule, in series [1] (18.8 mg./kg. oral), the “% Inhibition of Control Grade … Day 14” value is 4%; the “% Inhibition of Control Grade … Day 21” value is given as 8%; the “% Inhibition of Swelling … Day 14” value is 31%; the “% Inhibition of Swelling … Day 21” value is recorded as 7%. In addition, in series [1] (18.8 mg./kg. oral), the “Dead/Treated At 21 Days” value was 2/21; the “Mean Weight Gain, Day 14” value is on record as 50 grams; the “Mean Weight Gain, Day 21” value stood at 45 grams. Further, in series [1] (37.5 mg./kg. oral), the “% Inhibition of Control Grade … Day 14” value is reported as 18%; the “% Inhibition of Control Grade … Day 21” value stood at 13%; the “% Inhibition of Swelling … Day 14” value is 56%; the “% Inhibition of Swelling … Day 21” value turned out to be 14%. Besides, in series [1] (37.5 mg./kg. oral), the “Dead/Treated At 21 Days” value is 5/39; the “Mean Weight Gain, Day 14” value amounted to 53 grams; the “Mean Weight Gain, Day 21” value is 53 grams. Also, in series [1] (75 mg./kg. oral), the “% Inhibition of Control Grade … Day 14” value amounted to 27%; the “% Inhibition of Control Grade … Day 21” value is 15%; the “% Inhibition of Swelling … Day 14” value amounted to 62%; the “% Inhibition of Swelling … Day 21” value came to 28%. Also, in series [1] (75 mg./kg. oral), the “Dead/Treated At 21 Days” value is reported as 2/39; the “Mean Weight Gain, Day 14” value is listed as 51 grams; the “Mean Weight Gain, Day 21” value is 50 grams. Also, in series [1] (150 mg./kg. oral), the “% Inhibition of Control Grade … Day 14” value is on record as 54%; the “% Inhibition of Control Grade … Day 21” value is on record as 31%; the “% Inhibition of Swelling … Day 14” value was determined as 75%; the “% Inhibition of Swelling … Day 21” value is 44%. Moreover, in series [1] (150 mg./kg. oral), the “Dead/Treated At 21 Days” value is on record as 2/27; the “Mean Weight Gain, Day 14” value was 40 grams; the “Mean Weight Gain, Day 21” value came to 50 grams. Also, in the series on Erythema in Guinea Pigs (setting [4]), the “Erythema Score (Avg.) 1 Hr.” value is on record as 0.5. For the same molecule, the “Erythema Score (Avg.) 4 Hr.” value in the series with Erythema in Guinea Pigs (setting [5]) turned out to be 2.4.
For `N#CCC(=N)c1ccccc1` [Benzimidoylacetonitrile, benzimidoylacetonitrile], the “C/T Edema Ratio (edema of control animals/edema of treated animals)” value in series [2] turned out to be 2.2. Further, the “Decrease In Body Temp.” value in series [3] was determined as 1.4 °C. For the same molecule, in series [1] (25 mg./kg. oral), the “% Inhibition of Control Grade … Day 14” value was 33%; the “% Inhibition of Control Grade … Day 21” value is reported as 16%; the “% Inhibition of Swelling … Day 14” value was found to be 33%; the “% Inhibition of Swelling … Day 21” value came out at 32%. Moreover, in series [1] (25 mg./kg. oral), the “Dead/Treated At 21 Days” value is 1/9; the “Mean Weight Gain, Day 14” value turned out to be 41 grams; the “Mean Weight Gain, Day 21” value was 38 grams. For the same molecule, in series [1] (50 mg./kg. oral), the “% Inhibition of Control Grade … Day 14” value is 59%; the “% Inhibition of Control Grade … Day 21” value is 48%; the “% Inhibition of Swelling … Day 14” value turned out to be 63%; the “% Inhibition of Swelling … Day 21” value is listed as 62%. For the same molecule, in series [1] (50 mg./kg. oral), the “Dead/Treated At 21 Days” value is 1/24; the “Mean Weight Gain, Day 14” value is given as 31 grams; the “Mean Weight Gain, Day 21” value turned out to be 49 grams. In series [1] (100 mg./kg. oral), the “% Inhibition of Control Grade … Day 14” value was 57%; the “% Inhibition of Control Grade … Day 21” value was 46%; the “% Inhibition of Swelling … Day 14” value was 68%; the “% Inhibition of Swelling … Day 21” value is listed as 60%. In series [1] (100 mg./kg. oral), the “Dead/Treated At 21 Days” value is 0/15; the “Mean Weight Gain, Day 14” value was 46 grams; the “Mean Weight Gain, Day 21” value turned out to be 65 grams. Also, the “duration of action (in words)” value in series [1] (greater suppression of primary and secondary lesions at the 21 day observation period) was “longer duration of action than standards”. Besides, in series [1] (relative to either controls or rats treated with standard compounds), the “mortality (in words)” value is reported as “low mortality”. Besides, the “Erythema Score (Avg.) 1 Hr.” value in the series on Erythema in Guinea Pigs (setting [4]) amounted to 1.0. The “Erythema Score (Avg.) 4 Hr.” value with Erythema in Guinea Pigs (setting [5]) was 2.8. For the same molecule, the “Erythema Score (Avg.) 1 Hr.” value with Erythema in Guinea Pigs (2% in ethyl alcohol, maximum score 3.0, control 2.5) was determined as 0.6. Further, the “Erythema Score (Avg.) 4 Hr.” value in the series on Erythema in Guinea Pigs (2% in ethyl alcohol, maximum score 3.0, control 3.0) worked out at 2.7.
With `N#CCC(=N)c1cccc(F)c1` [m-Fluorobenzimidoylacetonitrile, m-fluorobenzimidoylacetonitrile], in series [1] (50 mg./kg. oral), the “% Inhibition of Swelling … Day 14” value is 40%; the “% Inhibition of Swelling … Day 21” value turned out to be 7%; the “Dead/Treated At 21 Days” value is 1/18; the “Mean Weight Gain, Day 14” value is reported as 64 grams. In series [1] (50 mg./kg. oral), the “Mean Weight Gain, Day 21” value was found to be 60 grams.
